Measured values reported in patent publication US9315493B2, “Phenylpyridine derivative and drug containing same” (KOWA COMPANY, LTD., priority 2011, dated 2016).

What was measured:
human PPARγ2 = human PPARγ2 (Homo sapiens (Human), UniProt P37231); assay: PPARγ activation effect, Gal4-PPARγ2 LBD luciferase transfection assay in COS7 cells; type: cell-based; details: Gal4-human PPARγ2 LBD chimera, luciferase reporter; for EC50: 16 hours, rosiglitazone = 100%
Experimental: The agonistic activity of the compounds of the invention on PPARγ was measured based on the transfection assay using COS7 cells (DS Pharma Biomedical Co., Ltd., Osaka, Japan), which are the cell line derived from the kidney of the African green monkey. COS7 cells were cultured under 5% CO2 concentration, and DMEM medium containing 10% fetal bovine serum, glutamic acid, and antibiotics was used as a medium.
As an expression vector, a chimera in which DNA binding domain of Gal4, which is a yeast transcription factor, and ligand binding domain of human PPARγ2 are fused, i.e., a fused product between the amino acids 1 to 147 of Gal4 transcription factor and the amino acids 182 to 505 of human PPARγ2, was used. Furthermore, as a reporter vector, a firefly luciferase containing five copies of Gal4 recognition sequence in the promoter region was used. Plasmid transfection to the cells was performed according to a method which uses jetPEI (trade name, manufactured by Funakoshi Co., Ltd., Tokyo, Japan). Furthermore, β-galactosidase expression vector was employed as an internal standard.
After the transfection into the cells, the medium was replaced with a DMEM medium (containing 1% serum) added with the test compound, and the cells were further cultured for 16 hours. After that, the luciferase activity and β-galactosidase activity in the cell lysis solution were measured.
Meanwhile, for the present test, dimethylsulfoxide (DMSO) was used for dissolution and dilution of the test compounds, and during the cell treatment, the DMSO concentration in DMEM medium (containing 1% serum) was adjusted to 0.1%. As a positive compound, rosiglitazone (trade name, manufactured by ALEXIS Corporation, Switzerland) was used. The percentage (%) of the luciferase activity of the each test compound (1 to 30 μmol/L) was calculated when the luciferase activity of rosiglitazone (3 to 10 μmol/L) is 100% and the luciferase activity in the absence of the test compound is 0%. The 50% effective concentration of the test compound (EC50, 50% effect concentration) was calculated by using SAS Preclinical Package Ver 5.0 (trade name, manufactured by SAS institute Japan Co., Tokyo, Japan), which is a statistical analysis program.

[1] = target: angiotensin II type 1 receptor (Oryctolagus cuniculus (Rabbit), UniProt P34976); assay: Angiotensin II antagonistic activity in isolated rabbit blood vessels (angiotensin II-induced contraction of thoracic aorta ring); details: test compound 0.1 μM, angiotensin II 10 nM-induced contraction, read-out: Rate (%) of inhibiting angiotensin II activity at concentration of 0.1 μM
Chain of angiotensin II type 1 receptor (P34976 whole entry): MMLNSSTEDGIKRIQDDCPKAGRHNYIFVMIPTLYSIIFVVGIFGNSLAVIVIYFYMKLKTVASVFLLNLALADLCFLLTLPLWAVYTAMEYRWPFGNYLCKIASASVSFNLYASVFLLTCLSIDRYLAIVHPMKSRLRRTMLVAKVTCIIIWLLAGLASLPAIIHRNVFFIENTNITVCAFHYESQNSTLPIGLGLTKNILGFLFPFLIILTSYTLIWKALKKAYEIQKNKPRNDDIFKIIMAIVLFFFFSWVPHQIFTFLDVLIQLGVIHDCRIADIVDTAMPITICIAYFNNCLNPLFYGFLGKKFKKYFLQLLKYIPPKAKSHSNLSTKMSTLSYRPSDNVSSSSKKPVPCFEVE
Experimental: By using a specimen of isolated rabbit blood vessels, antagonistic activity of the compounds of the invention against angiotensin II type 1 receptor was calculated from a dose-response curve of angiotensin II-induced blood vessel contraction. Specifically, the specimen of thoracic aorta ring of a rabbit (New Zealand White: male, 2.4 to 3.0 kg) was suspended in a rmagnus bath filled with Krebs-Henseleite buffer (composition: 118 mM NaCl, 4.7 mM KCl, 2.55 mM CaCl2, 1.18 mM MgSO4, 1.18 mM KH2PO4, 24.88 mM NaHCO3, and 11.1 mM D-glucose), and angiotensin II (10 n M)-induced contraction was obtained in the presence of each test compound (1 n mol/L to 10 μmol/L). During the measurement, the inside temperature of the magnus bath was maintained at 37° C. and the bath was continuously ventilated with a sufficient amount of mixed gas (95% O2 and 5% CO2). The angiotensin II-induced contraction was converted into a relative value (%) that is based on the angiotensin II (0.1 μM)-induced contraction in the absence of the test compound.

Chain of human PPARγ2 (P37231 182-505): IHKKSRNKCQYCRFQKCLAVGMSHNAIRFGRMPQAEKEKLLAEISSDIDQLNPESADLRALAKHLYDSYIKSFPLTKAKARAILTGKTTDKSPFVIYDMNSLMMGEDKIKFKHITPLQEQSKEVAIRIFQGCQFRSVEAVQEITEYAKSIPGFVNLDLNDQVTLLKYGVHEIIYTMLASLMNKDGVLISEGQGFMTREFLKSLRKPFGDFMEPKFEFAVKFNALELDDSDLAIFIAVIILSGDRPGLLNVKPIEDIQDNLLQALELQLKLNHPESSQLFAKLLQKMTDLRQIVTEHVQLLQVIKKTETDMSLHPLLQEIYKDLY

Compound	% MAX vs Rosiglitazone (maximum activity strength relative to the maximum activity of rosiglitazone) (human PPARγ2)	EC50 (human PPARγ2)	inhibition at 0.1 µM [1]
CCCCCc1nc(C(C)C)n(-c2ncc(OCC)cn2)c(=O)c1Cc1ccc(-c2ccccc2-c2noc(=O)[nH]2)nc1 [Example 42, 3-{2-{5-{[1-(5-ethoxypyrimidin-2-yl)-2-isopropyl-6-oxo-4-pentyl-1,6-dihydropyrimidin-5-yl]methyl}pyridin-2-yl}phenyl}-1,2,4-oxadiazol-5(4H)-one]	53%	650 nM	
CCCc1nc(C(C)C)n(-c2ncc(OCC)cn2)c(=O)c1Cc1ccc(-c2ccccc2-c2noc(=O)[nH]2)nc1 [Example 40, 3-{2-{5-{[1-(5-ethoxypyrimidin-2-yl)-2-isopropyl-6-oxo-4-propyl-1,6-dihydropyrimidin-5-yl]methyl}pyridin-2-yl}phenyl}-1,2,4-oxadiazol-5(4H)-one]	69%	400 nM	68.3%
CCCc1nc(C2CC2)n(-c2ncc(OCC)cn2)c(=O)c1Cc1ccc(-c2ccccc2-c2noc(=O)[nH]2)nc1 [Example 41, 3-{2-{5-{[2-cyclopropyl-1-(5-ethoxypyrimidin-2-yl)-6-oxo-4-propyl-1,6-dihydropyrimidin-5-yl]methyl}pyridin-2-yl}phenyl}-1,2,4-oxadiazol-5(4H)-one]	65%	560 nM	89.9%
CCCCCc1nc(C2CC2)n(-c2ncc(OCC)cn2)c(=O)c1Cc1ccc(-c2ccccc2-c2noc(=O)[nH]2)nc1 [Example 43, 3-{2-{5-{[2-cyclopropyl-1-(5-ethoxypyrimidin-2-yl)-6-oxo-4-pentyl-1,6-dihydropyrimidin-5-yl]methyl}pyridin-2-yl}phenyl}-1,2,4-oxadiazol-5(4H)-one]	42%	590 nM	
CCCc1nc2c(C)cc(-c3nc4ccccc4n3C)cc2n1Cc1ccc(-c2ccccc2C(=O)O)cc1 [telmisartan, reference compound]			85.3%
